Like-named read-outs stand apart in the source and are kept apart here. Each block holds one compound with its values, some of them ahead of it.
What was measured:
[1] = tested on: rat CIA model; test: Rat collagen induced arthritis (CIA) model; format: in vivo; set-up: key to Clinical Assessment End point score / Clinical Assessment AUC Score / Paw swelling / Larsen' Score: a “*” indicates that there was a statistically significant improvement in the score, p 0.05 vs. untreated control
Procedure: Completed Freund's adjuvant (CFA) and incomplete Freund's adjuvant (IFA) were purchased from Difco. Bovine collagen type II (CII), lipopolysaccharide (LPS), and Enbrel was obtained from Chondrex (Isle d'Abeau, France); Sigma (P4252, L′Isle d'Abeau, France), Whyett (25 mg injectable syringe, France) Acros Organics (Palo Alto, Calif.), respectively. All other reagents used were of reagent grade and all solvents were of analytical grade.
Dark Agouti rats (male, 7-8 weeks old) were obtained from Harlan Laboratories (Maison-Alfort, France). Rats were kept on a 12 hr light/dark cycle (0700-1900). Temperature was maintained at 22° C., and food and water were provided ad libitum.
One day before the experiment, CII solution (2 mg/mL) was prepared with 0.05 M acetic acid and stored at 4° C. Just before the immunization, equal volumes of adjuvant (IFA) and CII were mixed by a homogenizer in a pre-cooled glass bottle in an ice water bath. Extra adjuvant and prolonged homogenization may be required if an emulsion is not formed. 0.2 mL of the emulsion was injected intradermally at the base of the tail of each rat on day 1, a second booster intradermal injection (CII solution at 2 mg/mL in CFA 0.1 mL saline) was performed on day 9. This immunization method was modified from published methods (Sims et al, 2004; Jou et al., 2005).
The therapeutic effects of the compounds were tested in the rat CIA model. Rats were randomly divided into equal groups and each group contained 10 rats. All rats were immunized on day 1 and boosted on day 9. Therapeutic dosing lasted from day 16 to day 30. The negative control group was treated with vehicle (MC 0.5%) and the positive control group with Enbrel (10 mg/kg, 3× week, s.c.). A compound of interest was typically tested at 3 doses, e.g. 3, 10, 30 mg/kg, p.o.
Arthritis is scored according to the method of Khachigian 2006, Lin et al 2007 and Nishida et al. 2004). The swelling of each of the four paws is ranked with the arthritic score as follows: 0-no symptoms; 1-mild, but definite redness and swelling of one type of joint such as the ankle or wrist, or apparent redness and swelling limited to individual digits, regardless of the number of affected digits; 2-moderate redness and swelling of two or more types of joints; 3-severe redness and swelling of the entire paw including digits; 4-maximally inflamed limb with involvement of multiple joints (maximum cumulative clinical arthritis score 16 per animal) (Nishida et al., 2004).
The area under the curve (AUC) from day 1 to day 14 was calculated for each individual rat. The AUC of each animal was divided by the average AUC obtained for the vehicle in the study from which the data on that animal was obtained and multiplied by 100 (i.e. the AUC was expressed as a percentage of the average vehicle AUC per study).
The clinical score difference for each animal was divided by the average clinical score difference obtained for the vehicle in the study from which the data on that animal was obtained and multiplied by 100 (i.e. the difference was expressed as a percentage of the average clinical score difference for the vehicle per study).
X-ray photos were taken of the hind paws of each individual animal. […]

[2] = tested on: JAK1-dependent pathway (IL-6 stimulated STAT1 phosphorylation in CD4+ lymphocytes) in human whole blood; test: cells; conditions: Lymphocyte, read-out: pIC50 in the inhibition of STAT1 phosphorylation (converted)
Procedure: Therefore, blood was taken from human volunteers who gave informed consent. Blood was then equilibrated for 30 minutes at 37° C. under gentle rocking, then aliquoted in Eppendorf tubes. Compound was added at different concentrations and incubated at 37° C. for 30 minutes under gentle rocking and subsequently stimulated for 20 minutes at 37° C. under gentle rocking with interleukin 6 (IL-6) for JAK1-dependent pathway stimulation or GM-CSF for JAK2-dependent pathway stimulation. Phospho-STAT1 and phospho-STAT5 were then evaluated using FACS analysis.
The increase in phosphorylation of STAT1 by IL-6 in lymphocytes was measured using anti phospho-STAT1 antibody by FACS.
A 3-fold dilution series of the compound was prepared in DMSO (10 mM stock solution). Control-treated samples received DMSO instead of compound. All samples were incubated with a 1% final DMSO concentration.
Human blood was collected in heparinized tubes. The blood was divided in aliquots of 148.54 μl. […]
50,000 total events were counted and Phospho-STAT1 positive cells were measured after gating on CD4+ cells, in the lymphocyte gate. Data were analyzed using the FACSDiva software and the percentage inhibition of IL-6 stimulation calculated on the percentage of positive cells for phospho-STAT1 on CD4+ cells.

[3] = tested on: JAK1-dependent signaling pathway (IFNα induced pSTAT1) in human whole blood; test: tissue or blood; conditions: read-out: pIC50 for inhibiting the INFα induced increase of pSTAT1 levels (converted)
Procedure: The samples were incubated at 37° C. for 30 min.
Absorbance was measured at 450 nm.

[4] = Steady state PK in rat CIA model; format: in vivo; conditions: plasma; for AUC(0-t): read-out: AUC (0-24 h); for half-life: read-out: T½ (converted)
Procedure: At day 7 or 11, blood samples were collected at the retro-orbital sinus with lithium heparin as anti-coagulant at the following time points: predose, 1, 3 and 6 hrs. Whole blood samples were centrifuged and the resulting plasma samples were stored at −20° C. pending analysis. Plasma concentrations of each test compound were determined by an LC-MS/MS method in which the mass spectrometer was operated in positive electrospray mode. Pharmacokinetic parameters were calculated using Winnonlin® (Pharsight®, United States) and it was assumed that the predose plasma levels were equal to the 24 hrs plasma levels.

[5] = molecular target: JAK3 (Homo sapiens (Human), UniProt P52333); test: JAK3 inhibition assay; format: biochemical
Sequence of JAK3 (P52333 781-1124): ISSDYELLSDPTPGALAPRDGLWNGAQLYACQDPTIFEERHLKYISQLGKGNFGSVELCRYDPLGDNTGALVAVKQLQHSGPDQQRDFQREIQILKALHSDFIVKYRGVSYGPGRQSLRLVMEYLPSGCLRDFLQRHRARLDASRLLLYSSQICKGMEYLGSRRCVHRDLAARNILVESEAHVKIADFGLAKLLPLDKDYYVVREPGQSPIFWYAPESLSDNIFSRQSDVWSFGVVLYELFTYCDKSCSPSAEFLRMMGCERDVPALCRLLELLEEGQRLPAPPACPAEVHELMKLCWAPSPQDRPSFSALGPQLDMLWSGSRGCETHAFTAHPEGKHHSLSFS
Procedure: Plates were washed 6 times with 300 μL per well of a 75 mM phosphoric acid solution and the bottom of the plates was sealed. 40 μL/well of Microscint-20 was added, the top of the plates was sealed and readout was performed using the Topcount (Perkin Elmer). Kinase activity was calculated by subtracting counts per minute (cpm) obtained in the presence of a positive control inhibitor (10 μM staurosporine) from cpm obtained in the presence of vehicle. The ability of a test compound to inhibit this activity was determined as:
Percentage inhibition=((cpm determined for sample with test compound present−cpm determined for sample with positive control inhibitor)divided by(cpm determined in the presence of vehicle−cpm determined for sample with positive control inhibitor))*100.
Dose dilution series were prepared for the compounds enabling the testing of dose-response effects in the JAK3 assay and the calculation of the IC50 for each compound.

[6] = 0.1 mg/kg/day, normalized score
[7] = 0.3 mg/kg/day, normalized score

- IC50 [2]: 832 nM
- IC50 [3]: 589 nM
- Cmax ([4]; PO 0.1 mg/kg/day): 5.18 ng/mL
- Tmax ([4]; PO 0.1 mg/kg/day): 3 h
- AUC(0-t) ([4]; PO 0.1 mg/kg/day): 30 ng·h/mL
- Cmax ([4]; PO 0.3 mg/kg/day): 19.3 ng/mL
- Tmax ([4]; PO 0.3 mg/kg/day): 1 h
- AUC(0-t) ([4]; PO 0.3 mg/kg/day): 163 ng·h/mL
- Cmax ([4]; PO 1 mg/kg/day): 102 ng/mL
- Tmax ([4]; PO 1 mg/kg/day): 1 h
- AUC(0-t) ([4]; PO 1 mg/kg/day): 931 ng·h/mL
- half-life ([4]; PO 1 mg/kg/day): 216 min
- Cmax ([4]; PO 3 mg/kg/day): 363 ng/mL
- Tmax ([4]; PO 3 mg/kg/day): 1 h
- AUC(0-t) ([4]; PO 3 mg/kg/day): 1930 ng·h/mL
- half-life ([4]; PO 3 mg/kg/day): 336 min
- Cmax ([4]; PO 10 mg/kg/day): 1170 ng/mL
- Tmax ([4]; PO 10 mg/kg/day): 1 h
- AUC(0-t) ([4]; PO 10 mg/kg/day): 7170 ng·h/mL
- half-life ([4]; PO 10 mg/kg/day): 270 min
- Cmax ([4]; PO 30 mg/kg/day): 3800 ng/mL
- Tmax ([4]; PO 30 mg/kg/day): 1 h
- AUC(0-t) ([4]; PO 30 mg/kg/day): 27800 ng·h/mL
- half-life ([4]; PO 30 mg/kg/day): 234 min
SMILES: O=C(Nc1nc2cccc(-c3ccc(CN4CCS(=O)(=O)CC4)cc3)n2n1)C1CC1 [Compound 1, Cyclopropanecarboxylic acid {5-[4-(1,1-dioxo-1-thiomorpholin-4-ylmethyl)-phenyl]-[1,2,4]triazolo [1,5-a]pyridin-2-yl}-amide]
- improvement in efficacy over Compound 2 when the oral doses are compared [1]: 100 fold
- Clinical Assessment AUC Score [1, 6]: *
- Clinical Assessment End point score [1, 6]: *
- Paw swelling ([1]; 0.3 mg/kg/day): *
- Clinical Assessment AUC Score [1, 7]: *
- Clinical Assessment End point score [1, 7]: *
- Paw swelling ([1]; 1 mg/kg/day): *
- Clinical Assessment AUC Score ([1]; 1 mg/kg/day, normalized score): *
- Clinical Assessment End point score ([1]; 1 mg/kg/day, normalized score): *
- Larsen' Score ([1]; 3 mg/kg/day): *
- Paw swelling ([1]; 3 mg/kg/day): *
- Clinical Assessment AUC Score ([1]; 3 mg/kg/day, normalized score): *
- Clinical Assessment End point score ([1]; 3 mg/kg/day, normalized score): *
- normalized clinical score values (AUC or difference from day 1 to day 14) ([1]; dose of 0.1 mg/kg): statistically significant improvements
- paw swelling readout ([1]; dose of 0.3 mg/kg): statistically significant increase
- Larsen score ([1]; dose of 3 mg/kg): statistically significant increase

- Cmax ([4]; PO 10 mg/kg/day): 867 ng/mL
- Tmax ([4]; PO 10 mg/kg/day): 1 h
- AUC(0-t) ([4]; PO 10 mg/kg/day): 2020 ng·h/mL
- half-life ([4]; PO 10 mg/kg/day): 70.2 min
- Cmax ([4]; PO 30 mg/kg/day): 2630 ng/mL
- Tmax ([4]; PO 30 mg/kg/day): 1 h
- AUC(0-t) ([4]; PO 30 mg/kg/day): 7810 ng·h/mL
- half-life ([4]; PO 30 mg/kg/day): 202 min
- IC50 [5]: 2840 nM
SMILES: O=C(Nc1nc2cccc(-c3ccc(CN4CCOCC4)cc3)n2n1)C1CC1 [Compound 2, N-(5-(4-(morpholinomethyl)phenyl)-[1,2,4]triazolo[1,5-a]pyridin-2-yl)cyclopropanecarboxamide]
- Clinical Assessment End point score ([1]; 10 mg/kg/day): *
- Clinical Assessment End point score ([1]; 30 mg/kg/day): *
- Larsen' Score ([1]; 30 mg/kg/day): *
- Paw swelling ([1]; 30 mg/kg/day): *
- normalized clinical score values ([1]; dose of 10 mg/kg): statistically significant improvements
- Larsen score ([1]; dose of 30 mg/kg): statistically significant increase
- paw swelling readout ([1]; dose of 30 mg/kg): statistically significant increase

- IC50 [5]: 195 nM
SMILES: O=C(Nc1nc2cccc(-c3ccc(CN4CCC(F)(F)CC4)cc3)n2n1)C1CC1 [Compound 11, Cyclopropanecarboxylic acid {5-[4-(4,4-difluoro-piperidin-1-ylmethyl)-phenyl]-[1,2,4]triazolo [1,5-a]pyridin-2-yl}-amide]
